Experimental data taken from patent publication US20120190004A1, “METHODS AND COMPOSITIONS FOR THE CRYOPRESERVATION OF DUCKWEED” (Biolex Therapeutics, Inc., priority 2009, published 2012).

What was measured:
Experiment in all cases: Cryopreservation success rate after dormancy induction in sugar-supplemented medium
Sp. polyrrhiza = format: in vivo, Spirodela polyrrhiza; settings: for Cryopreservation success rate: single sugars 90 mg/ml unless the label says 20 mg/ml, six sugar combo 15 mg/ml each; for Cryopreservation success, in words: summary of Tables 6 and 7
L. minor [1] = format: in vivo, Lemna minor; settings: sugars at two concentrations: 90 mg/ml (1X) and 270 mg/ml (3X)
L. sp. Branson = format: in vivo; settings: for Cryopreservation success, in words: summary of Tables 6 and 7
Procedure: (§1) Lemna minor duckweed plants were cultured on Schenk and Hildebrandt media with 20 mg/ml sucrose at an aerial temperature of between 21° C. and 30° C. and light levels ranging from 200 μM·M^−2·sec^−1 to 450 μM·M^−2·sec^−1 for 1 day up to 1 year. Three frond colonies (each frond colony comprised one or more daughter fronds attached to the mother frond) were aseptically transferred into a 2.0-mL cryovial containing a 900 μL solution of Schenk and Hildebrandt media, […] step. The frond colonies were incubated in this sugar solution for 21-30 days. Each 24-hour photoperiod was comprised of fluctuations in temperature and light levels. Specifically, the daytime hours consisted of culturing the duckweed frond colony at an aerial temperature of 10° C. with a light level of about 25 μM·M^−2·sec^−1 to about 50 μM·M^−2·sec^−1 for a duration of 3 hours, followed by an aerial temperature of 15° C. at a light level of about 25 μM·M^−2·sec^−1 to about 75 μM·M^−2·sec^−1 for a duration of 6 hours, and an aerial temperature of 10° C. with a light level of about 25 μM^−2·sec^−1 to about 50 μM·M^−2·sec^−1 for a duration of 3 hours. During the nighttime hours of the 24-hour photoperiod, the duckweed frond colonies were cultured at an aerial temperature of 4° C. in the absence of light for a duration of 12 hours.
(§2) The duckweed frond colonies were dehydrated in a laminar flow hood in 900 μL of a cryoprotective solution, comprising 1.92 M DMSO, […], 3.26 M glycerol, and 0.4 M sucrose at pH 5.8. The cryovials were incubated in this solution at 4° C. for 30 minutes to 2 hours in the absence of light. Following the incubation, the cryoprotective solution was removed and replaced with 900 μL of fresh cryoprotective solution.
(§3) The duckweed frond colonies were frozen in a slow rate freezer according to the following freezing protocol. The cryovials containing the duckweed frond colonies were held at 4° C. and the temperature was lowered to −4° C. at 1° C. per minute, to −40° C. at 25° C. per minute, and then raised to −12° C. at 10° C. per minute. The temperature was again lowered to −40° C. at 1° C. per minute, to −90° C. at 10° C. per minute, and then lowered to −150° C. at 10° C. per minute. Once frozen, the vials containing the frond colonies were transferred to the vapor phase of liquid nitrogen for storage.
(§4) After up to 17 months in storage, the frozen duckweed frond colonies were thawed and recovered as follows. The vials containing the frozen duckweed frond colonies were transferred from the liquid nitrogen storage tank to a laminar flow hood and were thawed at room temperature for approximately ten minutes. The cryoprotective solution was removed and replaced with 900 μL of Schenk and Hildebrandt medium, supplemented with 1.2 M sucrose, followed by a ten minute incubation at room temperature. The 1.2 M sucrose was subsequently diluted by a series of five dilutions whereby 450 μL of the 1.2 M sucrose solution was removed and replaced with 450 μL of Schenk and Hildebrandt medium supplemented with 20 mg/ml sucrose. Following the serial dilutions, the frond colonies were transferred to a petri dish with Schenk and Hildebrandt medium, supplemented with 10 mg/ml sucrose and 1% (weight/volume) agar. The duckweed frond colonies were cultured at an aerial temperature of between 21° C. and 30° C. with light levels ranging from about 20 μM·M^−2·sec^−1 to about 100 μM·M^−2·sec^−1 for 7-14 days prior to calculating the success rate of the cryopreservation procedure.
(§5) The cryopreservation success rate was calculated by the total number of visible daughter fronds (or daughter fronds with viable tissue) to survive the freezing process and successfully reproduce new daughter fronds as a percentage of the total number of visible daughter fronds that were frozen. Viability of tissue or of daughter fronds was assessed by the presence of green tissue and the ability of these fronds or frond tissues to reproduce and generate new daughter fronds. […]

BAP01-B2-230 line = format: in vivo, Lemna minor; settings: sugars at two concentrations: 90 mg/ml (1X) and 270 mg/ml (3X)
Procedure: (§6) Lemna minor duckweed plants were cultured on Schenk and Hildebrandt media with 20 mg/ml sucrose at an aerial temperature of between 21° C. and 30° C. and light levels ranging from […] for 1 day up to 1 year. Three frond colonies (each frond colony comprised one or more daughter fronds attached to the mother frond) were aseptically transferred into a 2.0-mL cryovial containing a 900 μL solution of Schenk and Hildebrandt media, supplemented with 15 mg/ml of each D-trehalose dihydrate, sucrose, D-sorbitol, D-raffinose pentahydrate, D-glucose, and D-mannitol for the dormancy-induction step. The frond colonies were incubated in this sugar solution for 21-30 days. Each 24-hour photoperiod was comprised of fluctuations in temperature and light levels. Specifically, the daytime hours consisted of culturing the duckweed frond colony at an aerial temperature of 10° C. with a light level of about 25 μM·M^−2·sec^−1 to about 50 μM·M^−2·sec^−1 for a duration of 3 hours, followed by an aerial temperature of 15° C. at a light level of about 25 μM·M^−2·sec^−1 to about 75 μM·M^−2·sec^−1 for a duration of 6 hours, and an aerial temperature of 10° C. with a light level of about 25 μM^−2·sec^−1 to about 50 μM·M^−2·sec^−1 for a duration of 3 hours. During the nighttime hours of the 24-hour photoperiod, the duckweed frond colonies were cultured at an aerial temperature of 4° C. in the absence of light for a duration of 12 hours.
as §2, §3, §4
(§7) The cryopreservation success rate was calculated by the total number of visible daughter fronds (or daughter fronds with viable tissue) to survive the freezing process and successfully reproduce new daughter fronds as a percentage of the total number of visible daughter fronds that were frozen. […]

L. minor [2] = format: in vivo, Lemna minor; settings: for Cryopreservation success rate: single sugars 90 mg/ml unless the label says 20 mg/ml, six sugar combo 15 mg/ml each; for Cryopreservation success, in words: summary of Tables 6 and 7
Procedure: as §6, §2, §3, §4, §7

L. yungensis = format: in vivo, Lemna yungensis; settings: for Cryopreservation success rate: single sugars 90 mg/ml unless the label says 20 mg/ml, six sugar combo 15 mg/ml each; for Cryopreservation success, number of surviving fronds: sugar 90 mg/ml; for Cryopreservation success, in words: summary of Tables 6 and 7
IFN61-B2-101 line = format: in vivo, Lemna minor; settings: sugars at two concentrations: 90 mg/ml (1X) and 270 mg/ml (3X)
Procedure: as §1, §2, §3, §4, §5

[3] = first set of experiments, single sugars 90 mg/ml unless the label says 20 mg/ml, six sugar combo 15 mg/ml each, in Schenk and Hildebrandt media during dormancy induction
[4] = second set of experiments, single sugars 90 mg/ml unless the label says 20 mg/ml, six sugar combo 15 mg/ml each

| Compound | Cryopreservation success rate (Sp. polyrrhiza; first set of experiments) | Cryopreservation success rate (Sp. polyrrhiza; second set of experiments) | Cryopreservation success rate (L. sp. Branson; [3]) | Cryopreservation success rate (L. sp. Branson; [4]) | Cryopreservation success rate (L. minor [2]; first set of experiments) | Cryopreservation success rate (L. minor [2]; second set of experiments) | Cryopreservation success, in words (L. minor [2]) | Cryopreservation success rate (L. yungensis; first set of experiments) [%] | Cryopreservation success rate (L. yungensis; second set of experiments) [%] | Cryopreservation success, in words (Sp. polyrrhiza) | Cryopreservation success, in words (L. sp. Branson) | Cryopreservation success, number of surviving fronds (L. yungensis; first set of experiments) [frond] | Cryopreservation success, number of surviving fronds (L. yungensis; second set of experiments) | Cryopreservation success, in words (L. yungensis) | other results |
| --- | --- | --- | --- | --- | --- | --- | --- | --- | --- | --- | --- | --- | --- | --- | --- |
| O=C[C@H](O)[C@@H](O)[C@H](O)[C@H](O)CO [Glucose, glucose] | 0% (0/4) | 0% (0/4) | 88.5% (23/26) | 53.3% (8/15) | 5.9% (1/17) | 53.9% (7/13) | lower cryopreservation success rates | 0 | 0 | – | – | – | – | – | Cryopreservation success rate (L. minor [1]; listed as Glucose 1X): 0% (0/12); Cryopreservation success rate (L. minor [1]; listed as Glucose 3X): 0% (0/16); Cryopreservation success rate (L. sp. Branson; sugars at two concentrations: 90 mg/ml (1X) and 270 mg/ml (3X), listed as Glucose 1X): 0% (0/11); Cryopreservation success rate (L. sp. Branson; sugars at two concentrations: 90 mg/ml (1X) and 270 mg/ml (3X), listed as Glucose 3X): 0% (0/15); Cryopreservation success rate (BAP01-B2-230 line; listed as Glucose 1X): 0% (0/14); Cryopreservation success rate (BAP01-B2-230 line; listed as Glucose 3X): 0% (0/13); Cryopreservation success rate (IFN61-B2-101 line; listed as Glucose 1X): 5.3%; Cryopreservation success rate (IFN61-B2-101 line; listed as Glucose 3X): 0% |
| OC[C@@H](O)[C@@H](O)[C@H](O)[C@H](O)CO [Mannitol, mannitol] | 50% (4/8) | 57.1% (4/7) | 33.3% (6/18) | 28.6% (4/14) | 0% (0/8) | 0% (0/14) | ineffective | – | – | successfully cryopreserved | low relative to the other sugars that were tested | 1 | 2 fronds | successfully cryopreserved | – |
| OC[C@H]1O[C@H](O[C@H]2O[C@H](CO)[C@@H](O)[C@H](O)[C@H]2O)[C@H](O)[C@@H](O)[C@@H]1O [Trehalose, trehalose] | 0% (0/4) | 0% (0/15) | 100% (20/20) | 100% (16/16) | 100% (17/17) | 85.7% (12/14) | prefers | 0 | 0 | – | – | – | – | – | Cryopreservation success rate (L. minor [1]; listed as Trehalose 1X): 100% (15/15); Cryopreservation success rate (L. minor [1]; listed as Trehalose 3X): 0% (0/12); Cryopreservation success rate (L. sp. Branson; sugars at two concentrations: 90 mg/ml (1X) and 270 mg/ml (3X), listed as Trehalose 1X): 100% (17/17); Cryopreservation success rate (L. sp. Branson; sugars at two concentrations: 90 mg/ml (1X) and 270 mg/ml (3X), listed as Trehalose 3X): 0% (0/17); Cryopreservation success rate (BAP01-B2-230 line; listed as Trehalose 1X): 85% (17/20); Cryopreservation success rate (BAP01-B2-230 line; listed as Trehalose 3X): 0% (0/12); Cryopreservation success rate (IFN61-B2-101 line; listed as Trehalose 1X): 93.8%; Cryopreservation success rate (IFN61-B2-101 line; listed as Trehalose 3X): 7.1% |
| OC[C@H]1O[C@H](OC[C@H]2O[C@H](O[C@]3(CO)O[C@H](CO)[C@@H](O)[C@@H]3O)[C@H](O)[C@@H](O)[C@@H]2O)[C@H](O)[C@@H](O)[C@H]1O [Raffinose, raffinose] | 0% (0/6) | 0% (0/12) | 100% (23/23) | 100% (17/17) | 100% (16/16) | 92.9% (13/14) | prefers | 0 | 0 | – | – | – | – | – | Cryopreservation success rate (L. minor [1]; listed as Raffinose 1X): 96% (24/25); Cryopreservation success rate (L. minor [1]; listed as Raffinose 3X): 0% (0/19); Cryopreservation success rate (L. sp. Branson; sugars at two concentrations: 90 mg/ml (1X) and 270 mg/ml (3X), listed as Raffinose 1X): 100% (20/20); Cryopreservation success rate (L. sp. Branson; sugars at two concentrations: 90 mg/ml (1X) and 270 mg/ml (3X), listed as Raffinose 3X): 0% (0/12); Cryopreservation success rate (BAP01-B2-230 line; listed as Raffinose 1X): 96.2% (25/26); Cryopreservation success rate (BAP01-B2-230 line; listed as Raffinose 3X): 0% (0/14); Cryopreservation success rate (IFN61-B2-101 line; listed as Raffinose 1X): 100%; Cryopreservation success rate (IFN61-B2-101 line; listed as Raffinose 3X): 26.7% |
| OC[C@@H](O)[C@@H](O)[C@H](O)[C@@H](O)CO [Sorbitol, sorbitol] | 12.5% (1/8) | 25% (1/4) | 27.3% (6/22) | 16.7% (2/12) | 0% (0/13) | 0% (0/4) | ineffective | – | – | successfully cryopreserved | low relative to the other sugars that were tested | 1 | 1 frond | successfully cryopreserved | – |
